# Laboratory results taken from patent US9937163B2, “Remedy for psychoneurotic diseases” (National University Corporation Chiba University, priority 2004, dated 2018).
# Marks after values point to notes of the source that are not given here.
# System: P50 auditory evoked potential in schizophrenic patients
# Assay: P50 auditory evoked potential in schizophrenic patients before and 1 h after administration of tropisetron
# Assay type: in vivo, human
# Protocol: Twenty-two patients with schizophrenia (14 males and 8 females, average age: 39.8 years old (standard deviation 14.0), age range: 18-60 years old) were selected as subjects. The subjects were diagnosed by psychiatrists on the basis of DSM-IV criteria. Psychiatric symptoms and cognitive functions of the subjects were evaluated using Brief Psychiatric Rating Scale (BPRS), Global Assessment of Functioning (GAF), Mini-Mental State Examination (MMSE) and Wechsler Adult Intelligence Scale-Revised (WAIS-R).
# First, a baseline P50 auditory evoked potential of a subject was measured (conditioning P50), then the P50 was measured 1 h after administration of 10 mg of tropisetron (test P50). P50 is a positive brain wave which appears approximately 50 m seconds after an auditory stimulus. Consecutive click sounds with an interval of 500 m seconds (conditioning stimulus and test stimulus) at 70 dB were presented every 10 seconds for 120 times, and the brain wave measured at the parietal region was summed to identify P50. The resistance of an electrode was set at 10 kW or less, and the brain wave exceeding ±70 mV was omitted as artifact. The largest positive wave between 40 ms and 90 ms after the conditioning stimulus was designated to be the conditioning P50, and the positive wave after the test stimulus whose latency is the closest to that of the conditioning P50 was designated to be the test P50. The amplitude of P50 was defined as the difference between the positive peak and the preceding negative trough. The P50 ratio was defined as the amplitude of the test P50 divided by the amplitude of the conditioning P50.
# Data were expressed as average±standard deviation. The statistical analysis between two groups was performed using Student's t-test. The relationship between variables was confirmed by Pearson's product-moment correlation coefficient. p Values of 0.05 or less were designated to be statistically significant.
# [1] = 1 h after administration of 10 mg tropisetron, 19 subjects with baseline P50 ratio larger than 0.5
structure (smiles),measurement,setting,value
"CN1[C@@H]2CC[C@H]1C[C@@H](OC(=O)c1c[nH]c3ccccc13)C2 [tropisetron, (1R,3r,5S)-8-methyl-8-azabicyclo[3.2.1]oct-3-yl 1H-indole-3-carboxylate]",Change in amplitude of conditioning P50 between before and after administration,"10 mg tropisetron, 1 h, 19 subjects, t=0.79, df=18, p=0.44",no significant differences
same,Change in latency of conditioning P50 between before and after administration,"10 mg tropisetron, 1 h, 19 subjects, t=1.05, df=18, p=0.31",no significant differences
same,Change in P50 ratio between before and after administration,"10 mg tropisetron, 1 h, 19 subjects, t=2.32, df=18, p=0.033",significant decrease
same,"Latency, conditioning P50, After, Mean",[1],59.79 ms
same,"Latency, test P50, After, Mean",[1],59.16 ms
same,"P50(T/C)ratio, After, Mean","1 h after administration of 10 mg tropisetron, 19 subjects with baseline P50 ratio larger than 0.5, amplitude of test P50 divided by amplitude of conditioning P50",0.61*
same,Effect on cognitive dysfunction in schizophrenia,conclusion drawn from the decrease in P50 ratios in patients with schizophrenia,improves cognitive dysfunction in schizophrenia
same,Number of subjects in whom the P50 ratio improved to 0.5 or less,"of 19 subjects with baseline P50 ratio larger than 0.5, after 10 mg tropisetron",four
